The source of these data is article PMC10572347, “Structure–Activity Relationships and Antiplasmodial Potencies of Novel 3,4-Disubstituted 1,2,5-Oxadiazoles” (International Journal of Molecular Sciences, 2023).

Read-outs that look alike come from different tables or passages of the source.

Series [1] concerns L-6 cells. The experiment in a line: In vitro cytotoxicity with L-6 cells (resazurin). Type of series: cell-based, rat. Here is the method: (§1) Serial drug dilutions of 11 3-fold dilution steps covering a range from 100 to 0.002 μg/mL were prepared. After 70 h of incubation, the plates were inspected under an inverted microscope to assure the growth of the controls and sterile conditions. […] The plates were read with a Spectramax Gemini XS microplate fluorometer (Molecular Devices Cooperation, Sunnyvale, CA, USA) using an excitation wavelength of 536 nm and an emission wavelength of 588 nm. The IC50 values were calculated by linear regression from the sigmoidal dose inhibition curves using SoftmaxPro software Version 8.2.1 (Molecular Devices Cooperation, Sunnyvale, CA, USA). Podophyllotoxin (Sigma P4405) was used as control.
(The colour change of resazurin is a common sign of viable cells or microbes.)

The subject of series [2] is P. falciparum NF54. Briefly: In vitro microplate assay against P. falciparum (3H-hypoxanthine incorporation). The following applies: for S.I. = IC50 (Cyt.)/IC50 (P.f.NF54): L-6 cells vs P.f. NF54. Format: cell-based, Plasmodium falciparum. As to the method: In vitro activity against the erythrocytic stages of P. falciparum was determined using a ^3H-hypoxanthine incorporation assay, using the drug sensitive NF54 strain [37]. […] The 96-well plates were incubated in a humidified atmosphere at 37 °C, 4% CO2, 3% O2 and 93% N2. After 48 h, 0.05 mL of ^3H-hypoxanthine (=0.5 µCi) was added to each well of the plate. The plates were incubated for a further 24 h under the same conditions. The plates were then harvested with a Betaplate cell harvester (Wallac, Zurich, Switzerland). The red blood cells were transferred onto a glass fiber filter and washed with distilled water. The dried filters were inserted into a plastic foil with 10 mL of scintillation fluid and counted in a Betaplate liquid scintillation counter (Wallac, Zurich, Switzerland). The IC50 values were calculated from sigmoidal inhibition curves by linear regression using Microsoft Excel. Chloroquine (Sigma C6628) was used as control.

The subject of series [3] is L-6 cells. Also noted: method as in PMID 33925485. The conditions noted are these: formerly prepared compounds 1–5; read-out: Cytotoxicity L-6 Cells IC50; cited from earlier work.
Series [4] concerns P. falciparum NF54. Also noted: method as in PMID 33925485. The following applies: formerly prepared compounds 1–5, cited from earlier work; for IC50: chloroquine-sensitive strain NF54, read-out: P.f. NF54 IC50.
A further series deals with CYP3A4 (Homo sapiens, UniProt P08684). Briefly: Cytochrome P450 3A4 inhibition assay (P450-Glo, Luciferin-IPA). The conditions noted are these: recombinant human CYP3A4 Supersomes (+ oxidoreductase + b5), pH 7.4, probe Luciferin-IPA. Here is the method: The CYP3A4 inhibition assay was performed using 96-well white plates (Greiner Bio-One) at a pH of 7.4. […] Stock solutions were further diluted to a final concentration of 20 µM using water (HPLC grade). The luciferin IPA stock solution (3 mM) was diluted to a final concentration of 0.3 mM using water (HPLC grade). The CYP3A4 reaction mixture was prepared by mixing water (HPLC grade) with potassium phosphate buffer (1 M), luciferin IPA (0.3 mM) and CYP3A4 membrane (1 pmol/µL). The control reaction mixture was prepared using water (HPLC grade), potassium phosphate buffer (1 M), luciferin IPA (0.3 mM) and membrane without CYP activity (1 pmol/µL). Solutions A and B of the NADPH regeneration system were mixed and HPLC grade water was added. The reconstituted luciferin detection reagent was prepared by mixing the reconstituted buffer with esterase with the luciferin detection reagent. Then, solutions of test compounds and standard were added to the wells of the 96-well white plate; each was tested in triplicate. The CYP3A4 reaction mixture was added to each well and the plate was incubated for 10 min at room temperature. After that, the NADPH regeneration system was added, inducing the reaction followed by an incubation time of 10 min at ambient temperature. By adding the reconstituted luciferin detection reagent, the reaction was terminated and a luminescent signal was formed. Luminescence was measured by a SpectraMax M3 UV plate reader (Molecular Devices). The relative light units (RLU) were received from a calibration curve with beetle luciferin. […] The CYP3A4 inhibition (%) was calculated from the RLU.

The nature of series [5]: In vitro cytotoxicity with L-6 cells (resazurin). Format: cell-based, rat. The following applies: rat. Here is the method: as §1
[6] abbreviates: rat skeletal myofibroblasts, average of four determinations, read-out: Cytotoxicity L-6 Cells IC50.
Setting [7] is: Plasmodium falciparum, NF54, chloroquine-sensitive strain NF54, average of four determinations, read-out: P.f. NF54 IC50.

CYP3A4, sequence (P08684 2-503 limits assumed): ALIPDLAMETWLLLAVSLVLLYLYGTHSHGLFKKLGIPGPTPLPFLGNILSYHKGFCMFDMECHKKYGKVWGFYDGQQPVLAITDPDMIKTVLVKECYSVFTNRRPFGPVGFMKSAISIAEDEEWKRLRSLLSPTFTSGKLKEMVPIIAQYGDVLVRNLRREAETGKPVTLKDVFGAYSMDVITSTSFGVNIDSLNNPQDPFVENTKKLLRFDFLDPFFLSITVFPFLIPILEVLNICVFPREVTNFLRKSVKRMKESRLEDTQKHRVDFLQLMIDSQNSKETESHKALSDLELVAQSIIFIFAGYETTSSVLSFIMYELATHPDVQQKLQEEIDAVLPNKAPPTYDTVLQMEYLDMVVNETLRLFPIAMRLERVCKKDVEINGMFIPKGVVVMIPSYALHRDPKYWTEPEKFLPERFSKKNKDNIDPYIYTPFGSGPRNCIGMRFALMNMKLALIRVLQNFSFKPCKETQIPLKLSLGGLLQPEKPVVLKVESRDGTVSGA

For orientation: IC50 means the point on the concentration scale where inhibition reaches its midpoint. For `CCN(CC)CCCC(C)Nc1ccnc2cc(Cl)ccc12` (centres unmarked) [CQ, chloroquine, reference compound], the IC50 in the series on L-6 cells [1] (setting [6]) was determined as 90.9 µM; in the series with P. falciparum NF54 [2] (Plasmodium falciparum, NF54, read-out: P.f. NF54 IC50), 0.009 µM. In addition, the “S.I. = IC50 (Cyt.)/IC50 (P.f.NF54)” value in the series with P. falciparum NF54 [2] worked out at 9672.
By inhibition is commonly meant the percentage by which the read-out fell short of the control. In the case of `CCOc1ccc(-c2nonc2NC(=O)c2cccc(C)c2)cc1OCC` [Compound 1, reference compound], the IC50 in the series with L-6 cells [3] is 159 µM. In addition, in the series on P. falciparum NF54 [4], the IC50 is 0.011 µM and the “S.I. = IC50 (Cyt.)/IC50 (P.f.NF54)” value is listed as 14,483. Besides, on CYP3A4, the inhibition at 10 min, 20 µM turned out to be 45%.
Turning to `CCOc1ccc(-c2nonc2NC(=O)c2ccccc2)cc1OCC` [Compound 2], the IC50 with L-6 cells [3] was 111 µM. In addition, in the series on P. falciparum NF54 [4], the IC50 was 0.076 µM and the “S.I. = IC50 (Cyt.)/IC50 (P.f.NF54)” value is on record as 1463.
On to `CCOc1ccc(-c2nonc2NC(=O)c2cccc(F)c2)cc1OCC` [Compound 3], for which the IC50 in the series on L-6 cells [3] is 41.1 µM. Further, in the series on P. falciparum NF54 [4], the IC50 is 0.049 µM and the “S.I. = IC50 (Cyt.)/IC50 (P.f.NF54)” value is recorded as 839.6.
In the case of `CCOc1ccc(-c2nonc2NC(=O)c2cccc(C(F)(F)F)c2)cc1OCC` [Compound 4], the IC50 in the series with L-6 cells [3] is 9.97 µM; in the series on P. falciparum NF54 [4] it was 0.019 µM. Moreover, the “S.I. = IC50 (Cyt.)/IC50 (P.f.NF54)” value in the series on P. falciparum NF54 [4] is given as 524.6.
For the molecule `CCOc1ccc(-c2nonc2NC(=O)c2ccc(OC)c(Cl)c2)cc1OCC` [Compound 5], the IC50 in the series on L-6 cells [3] is 20 µM. Further, in the series on P. falciparum NF54 [4], the IC50 is 0.014 µM and the “S.I. = IC50 (Cyt.)/IC50 (P.f.NF54)” value is recorded as 1431.
Usually melting point stands for the temperature, or range, at which the solid turns liquid. In turn, `O=C(Nc1nonc1-c1ccc(F)cc1)c1cccc(F)c1` [Compound 45, 3-Fluoro-N-[4-(4-fluorophenyl)-1,2,5-oxadiazol-3-yl]benzamide] gave a melting point of 169 °C. Moreover, the half-inhibitory concentration (IC50) at 72 h in series [5] came to 11.2 µM. Besides, the inhibition at 10 min, 20 µM on CYP3A4 amounted to 60%. In addition, the “S.I. = IC50 (Cyt.)/IC50 (P.f.NF54)” value with P. falciparum NF54 [2] is on record as 1.000. In addition, the IC50 in the series on P. falciparum NF54 [2] (setting [7]) amounted to 11.2 µM.
In turn, `Cc1cccc(C(=O)Nc2nonc2-c2ccc(Cl)cc2)c1` [Compound 47, N-[4-(4-Chlorophenyl)-1,2,5-oxadiazol-3-yl]-3-methylbenzamide] gave a melting point of 165 °C. In series [5], it took 136 µM to reach half-maximal inhibition (IC50 at 72 h). For the same molecule, the inhibition at 10 min, 20 µM on CYP3A4 amounted to 57%. The “S.I. = IC50 (Cyt.)/IC50 (P.f.NF54)” value with P. falciparum NF54 [2] amounted to 15.54. Also, the 50% inhibitory concentration (IC50) in the series with P. falciparum NF54 [2] (setting [7]) worked out at 8.73 µM.
For `CCOc1cc(-c2nonc2NC(=O)c2cccc(C)c2)ccc1OC` [Compound 51, N-[4-(3-Ethoxy-4-methoxyphenyl)-1,2,5-oxadiazol-3-yl]-3-methylbenzamide], in that order: 280 °C, 51.9 µM, 66%, 1526 and 0.034 µM.
In the case of `CCOc1ccc(-c2nonc2NC(=O)c2cccc(C)c2)cc1OC` [Compound 52, N-[4-(4-Ethoxy-3-methoxyphenyl)-1,2,5-oxadiazol-3-yl]-3-methylbenzamide], the melting point was 260 °C. This molecule yielded a half-inhibitory concentration (IC50) at 72 h in series [5] of 23.8 µM. Further, the inhibition at 10 min, 20 µM at CYP3A4 was 52%. Also, the “S.I. = IC50 (Cyt.)/IC50 (P.f.NF54)” value with P. falciparum NF54 [2] is recorded as 86.47. The IC50 in the series on P. falciparum NF54 [2] (setting [7]) stood at 0.275 µM.
For `Cc1cccc(C(=O)Nc2nonc2-c2cccc(N)c2)c1` [Compound 61, N-[4-(3-Aminophenyl)-1,2,5-oxadiazol-3-yl]-3-methylbenzamide], in that order: 172 °C, 186 µM, 99%, 6.182 and 30.2 µM.
On to `COc1cc([C@@H]2c3cc4c(cc3[C@H](O)[C@H]3COC(=O)[C@H]23)OCO4)cc(OC)c1OC` [POD, podophyllotoxin, reference compound], for which the half-maximal inhibitory concentration (IC50) in the series with L-6 cells [1] (setting [6]) turned out to be 0.012 µM.
Take “N-[4-(4-Fluorophenyl)-3-(trifluoromethyl)-1,2,5-oxadiazol-3-yl]benzamide [Compound 50]”: the IC50 in the series with L-6 cells [1] is 7.4 µM; in the series on P. falciparum NF54 [2] (chloroquine-sensitive strain NF54, average of four determinations, read-out: P.f. NF54 IC50) it was 8.68 µM.
